Assay results reported in patent US6348454B1, “Syntheses of new isodethiaazacephems and isodethiaazacephams, and use as potent antibacterial agents” (National Science Council, priority 1999, dated 2002).
≈ marks a conversion by molar mass, not a printed value. Like-named read-outs stand apart in the source and are kept apart here.

Columns and labels:
[1] = Stability of β-lactams in water at various pH; details: for time within which pH of the aqueous solution changed to ˜1 (destruction of β-lactam ring): initial pH about 4.0; for time the β-lactam ring survived / time within which β-lactam ring was destructed: pH 1.0
Description: In another series of assays, we dissolved isodethiaazacephems (±)−3 and (±)−4 as well as isodethiaazacepham (±)−5 in distilled water (5.0 mg/mL).

[2] = system: five pathogenic microorganisms; assay: Antibacterial activity in vitro, summary in words; type: cell-based; details: doses as high as 128 μg/mL; Table 1
Description: (§1) Antimicrob. Agents Chemother. 1978, 14, 807-811] penicillin G [Morris, J. J.; Page, M. I. Intra- and Intermolecular Catalysis in the Aminolysis of Benzylpenicillin. J. Chem. Soc., Perkin Trans 2 1980, 212-219], and 7-(β-phenylacetamido)-3′-desacetoxycephalosporanic acid (±)−2 [Page, M. L.; Proctor, P. Mechanism of β-Lactam Opening in Cephalosporins. J. Am. Chem. Soc. 1984, 106, 3820-3825] in vitro against five pathogenic microorganisms. The doses used were as high as 128 μg/mL.
(§2) The serial broth dilution method was used to study the antibiotic activity [Pursiano, T. A.; Misiek, M.; Leitner, F.; Price, K. E. Effect of Assay Medium on the Antibacterial Activity of Certain Penicillins and Cephalosporins. Antimicrob. Agents Chemother. 1973, 3, 33-39]. The inocula were prepared by use of the heart infusion broth (Difco Laboratories) to make 10^−4 dilutions of the overnight cultures. Tubes of the seeded antibiotic-containing media were incubated at 37° C. for 20 h. The lowest concentration of antibiotic that prevented visible growth of microorganisms was then determined.

E. coli ATCC 39188 = assay: Antibacterial activity, serial broth dilution method (MIC); type: cell-based; details: for MIC: Escherichia coli, read-out: Minimal Inhibitory Concentrations
Description: as §1, §2

S. aureus FDA 209P = assay: as above; type: cell-based; details: 20 h; for MIC: Staphylococcus aureus, FDA209P, read-out: Minimal Inhibitory Concentrations
Description: as §1, §2

Ps. aeruginosa 1101-75 = assay: as above; type: cell-based; details: for MIC: read-out: Minimal Inhibitory Concentrations
Description: as §1, §2

S. typhi O-901 = assay: as above; type: cell-based; details: 20 h; for MIC: Salmonella enterica, TYPHI, read-out: Minimal Inhibitory Concentrations; for Minimal Inhibitory Concentrations: S. typhi O-901, average of triplicate determinations, 37° C.
Description: as §1, §2

K. pneumoniae NCTC 418 = assay: as above; type: cell-based; details: for MIC: Klebsiella pneumoniae, read-out: Minimal Inhibitory Concentrations
Description: as §1, §2

[3] = ATCC39188, E. coli ATCC 39188, average of triplicate determinations, 37° C., 20 h
[4] = S. aureus FDA 209P, average of triplicate determinations, 37° C.
[5] = Pseudomonas aeruginosa, 110175, Ps. aeruginosa 1101-75, average of triplicate determinations, 37° C., 20 h
[6] = NCTC418, K. pneumoniae NCTC 418, average of triplicate determinations, 37° C., 20 h
[7] = Pseudomonas aeruginosa, 110175, 20 h
[8] = E. coli ATCC 39188, average of triplicate determinations, 37° C., 20 h
[9] = Ps. aeruginosa 1101-75, average of triplicate determinations, 37° C., 20 h
[10] = K. pneumoniae NCTC 418, average of triplicate determinations, 37° C., 20 h

Compound | melting point | initial pH value of the aqueous solution ([1]; distilled water, 5.0 mg/mL) | antibacterial activity (in words) [2] | MIC (E. coli ATCC 39188; [3]) | MIC (S. aureus FDA 209P; [4]) | MIC (Ps. aeruginosa 1101-75; [5]) | MIC (S. typhi O-901) | MIC (K. pneumoniae NCTC 418; [6]) | MIC (Ps. aeruginosa 1101-75; [7]) | MIC (K. pneumoniae NCTC 418; NCTC418, 20 h) | Minimal Inhibitory Concentrations (S. typhi O-901) | Minimal Inhibitory Concentrations (E. coli ATCC 39188; [8]) | Minimal Inhibitory Concentrations (S. aureus FDA 209P; [4]) | also measured
CS(=O)(=O)OC1=C(C(=O)O)N2C(=O)[C@@H](NC(=O)Cc3ccccc3)[C@H]2CN1 (racemic) [(±)-3, (6RS,7SR)-3-Methanesulfonyloxy-8-oxo-7-(phenylacetamido)-1,4-diazabicyclo[4.2.0]oct-2-ene-2-carboxylic Acid] | 115 to 117 °C | about 4.0 | promising antimicrobial activities | 0.95 µg/mL (≈ 2.4 µM) | 0.07 µg/mL (≈ 0.177 µM) | 4.38 µg/mL (≈ 11.1 µM) | 1.2 µg/mL (≈ 3.03 µM) | 0.68 µg/mL (≈ 1.72 µM) | – | – | – | – | – | time within which pH of the aqueous solution changed to ˜1 (destruction of β-lactam ring) ([1]; distilled water, 5.0 mg/mL): three; time the β-lactam ring survived [1]: ~4 h; solubility (physchem; water): 21 mg/mL (≈ 53100 µM)
O=C(Cc1ccccc1)N[C@@H]1C(=O)N2C(C(=O)O)=C(OS(=O)(=O)C(F)(F)F)NC[C@H]12 (racemic) [(±)-4, (6RS,7SR)-3-Trifluoromethanesulfonyloxy-8-oxo-7-(phenylacetamido)-1,4-diazabicyclo[4.2.0]oct-2-ene-2-carboxylic Acid] | 100 to 102 °C | about 4.0 | promising antimicrobial activities | 0.09 µg/mL (≈ 0.2 µM) | 0.01 µg/mL (≈ 0.0223 µM) | 1.15 µg/mL (≈ 2.56 µM) | 0.68 µg/mL (≈ 1.51 µM) | 0.24 µg/mL (≈ 0.534 µM) | – | – | – | – | – | time within which pH of the aqueous solution changed to ˜1 (destruction of β-lactam ring) ([1]; distilled water, 5.0 mg/mL): two; time the β-lactam ring survived [1]: ~2 h; solubility (physchem; water): 27 mg/mL (≈ 60100 µM)
O=C(Cc1ccccc1)N[C@@H]1C(=O)N2C(C(=O)O)=C(O)NC[C@H]12 (racemic) [(±)-10, (6RS,7SR)-3-Hydroxy-8-oxo-7-(phenylacetamido)-1,4-diazabicyclo[4.2.0]-oct-2-ene-2-carboxylic Acid] | 140 to 142 °C | – | – | 94.7 µg/mL (≈ 298 µM) | 29.5 µg/mL (≈ 93 µM) | – | > 128 µg/mL | – | > 128 µg/mL | > 128 µg/mL | – | – | – | time stable in phosphate buffer ([1]; phosphate buffer (0.10 M, pH 6.8)): two; solubility (physchem; pH 6.8, aqueous buffer): 35 mg/mL (≈ 110000 µM)
CS(=O)(=O)OC1=C(C(=O)OCc2ccccc2)N2C(=O)[C@@H](NC(=O)Cc3ccccc3)[C@H]2CN1 (racemic) [(±)-11, Benzyl (6RS,7SR)-3-Methanesulfonyloxy-8-oxo-7-(phenylacetamido)-1,4-diazabicyclo[4.2.0]oct-2-ene-2-carboxylate] | – | – | do not exhibit antibacterial activity | – | – | – | > 128 µg/mL | – | > 128 µg/mL | > 128 µg/mL | – | – | – | MIC (E. coli ATCC 39188; ATCC39188, 20 h): > 128 µg/mL; MIC (S. aureus FDA 209P): > 128 µg/mL
O=C(Cc1ccccc1)N[C@@H]1C(=O)N2C(C(=O)OCc3ccccc3)=C(OS(=O)(=O)C(F)(F)F)NC[C@H]12 (racemic) [(±)-12, Benzyl (6RS,7SR)-3-Trifluoromethanesulfonyloxy-8-oxo-7-(phenylacetamido)-1,4-diazabicyclo[4.2.0]oct-2-ene-2-carboxylate] | – | – | do not exhibit antibacterial activity | – | – | – | > 128 µg/mL | – | > 128 µg/mL | > 128 µg/mL | – | – | – | MIC (E. coli ATCC 39188; ATCC39188, 20 h): > 128 µg/mL; MIC (S. aureus FDA 209P): > 128 µg/mL
CS(=O)(=O)C1=C(O)NC[C@@H]2[C@H](NC(=O)Cc3ccccc3)C(=O)N12 (racemic) [(±)-17, (6RS,7SR)-3-Hydroxy-8-oxo-7-(phenylacetamido)-1,4-diazabicyclo[4.2.0]oct-2-ene-2-methylsulfone] | – | – | – | – | – | – | – | – | – | – | >128 µg/mL | – | – | time within which β-lactam ring was destructed [1]: two
CC1=C(C(=O)O)N2C(=O)C(NC(=O)Cc3ccccc3)C2SC1 (single isomer, unassigned; (+)) [(+)-2, 7-(β-phenylacetamido)-3′-desacetoxycephalosporanic acid, reference compound] | – | – | – | – | – | – | – | – | – | – | 24.50 µg/mL | 13.13 µg/mL | 0.64 µg/mL | Minimal Inhibitory Concentrations (Ps. aeruginosa 1101-75; [9]): 100.0 µg/mL; Minimal Inhibitory Concentrations (K. pneumoniae NCTC 418; [10]): 2.98 µg/mL
CO/N=C(\C(=O)N[C@@H]1C(=O)N2C(C(=O)O)=C(COC(C)=O)CS[C@H]12)c1csc(N)n1 [cefotaxime, reference compound] | – | – | – | 0.25 µg/mL (≈ 0.549 µM) | 0.08 µg/mL (≈ 0.176 µM) | 62.4 µg/mL (≈ 137 µM) | 20.3 µg/mL (≈ 44.6 µM) | 10.2 µg/mL (≈ 22.5 µM) | – | – | – | – | – | –
CC1(C)S[C@@H]2[C@H](NC(=O)Cc3ccccc3)C(=O)N2[C@H]1C(=O)O [penicillin G, reference compound] | – | – | – | – | – | – | – | – | – | – | >128 µg/mL | 2.30 µg/mL | 0.40 µg/mL | –
(2RS,6RS,7SR)- and (2SR,6RS,7SR)-2-Methanesulfonyl-3,8-dioxo-7-(phenylacetamido)-1,4-diazabicyclo[4.2.0]octane-2-carboxylic Acid [(±)-5] | – | about 2.0 | profound antibacterial activity | – | – | – | – | – | – | – | 65.30 µg/mL | 97.17 µg/mL | 48.50 µg/mL | time within which β-lactam ring was destructed ([1]; acidic solution): ≤ 3 h; time of decarboxylation ([1]; basic solution, pH 12): ≤ 20 min; time within which pH of aqueous solution changed from 2.0 to 6.0 (decarboxylation to (±)−17) ([1]; distilled water, 5.0 mg/mL): 5-6 days; Minimal Inhibitory Concentrations (Ps. aeruginosa 1101-75; [9]): 120.0 µg/mL; Minimal Inhibitory Concentrations (K. pneumoniae NCTC 418; [10]): 51.02 µg/mL
